The values that follow come from patent publication US10925854B2, “Methods and compositions for preventing or treating fatty liver, protecting liver function or ameliorating liver diseases caused by fatty liver or other associated disorders” (SINEW PHARMA INC., priority 2015, dated 2021).

The subject of assay [1] is HepG2 fatty liver cells (induced with oleic acid). Description: Reduction of TG content in oleic acid-induced HepG2 fatty liver cells. Format: cell-based, human. The settings on record: Homo sapiens, 72 h; tested substances 1.0 uM, fatty liver cells from HepG2; read-out: TG reduction rate. The protocol: The activity of the various compounds of the present invention in reduction of fat content was analyzed by using human hepatoma cell line Hep G2.
HepG2 cell lines (15×10^6 cells) were cultured in DMEM culture No. B, incubated in an incubator with 5% CO2 at 37° C. for 24 hours, cultured in DMEM culture No. C (serum-free medium) for 24 hours, and finally cultured in DMEM culture No. D (containing oleate/albumin complex) for another 48 hours to induce HepG2 cell lines to form fatty liver cells.
HepG2 cell lines were divided into six groups, including: (1) Blank: no treatment; (2) DMSO group: cells from Blank were treated with dimethyl sulfoxide (DMSO); (3) Control: induction with oleic acid to form fatty liver cells; (4) Vehicle group: fatty liver cells formed by induction with oleic acid were treated with DMSO; (5) Positive control: fatty liver cells were treated with silymarin; and (6) Test Group: fatty liver cells were treated with various compounds of the present invention.
After incubation for 72 hours, the treated cells from each group were successively washed twice with PBS, and then incubated with 0.5 ml of trypsin/EDTA for 3 minutes. Afterwards, the cells were scraped with 2 ml of PBS and then transferred to the centrifuge tube to be shattered by ultrasonic. 20 μl of the cell extracts was taken to determine the content of protein. TG determination was performed using commercially available combination of agents (Randox). The TG content obtained above was divided by the protein content to obtain a ratio, representing a relative TG content in the cells.
The equation for calculating reduction rate (%) of TG was as follows: [1−(TG content of Test Group−TG content of Blank)/(TG content of Oleic acid induction Group−TG content of Blank)]×100%.

Assay [2] in a line: Abdominal fat weight, liver weight and increase of body weight in high fat feed mice. Format: in vivo, B6 mice. To be noted: fatty liver mice. The protocol: (§1) B6 mice recommended in the specification “Method for evaluating the liver protection and health care efficacies of health food” announced by the Department of Health were chosen for animal testing. More than four (4) mice were used in each group of the pre-test, while more than twelve (12) mice were used in each group of the confirmatory test. Male mice bred at 23±2° C. in an animal room with 55±15% relative humidity under normal light/dark cycle (7:00 AM-7:00 PM lights on/7:00 PM-7:00 AM lights off) and weighing 18-23 g were purchased from BioLASCO (Taipei) and housed at Laboratory Animal Center in National Defense Medical Center. The animal test was carried out according to the guideline for animal experiment of National Health Research Institutes. Mice were fed with normal feed at 3-5 g/day and unlimited supply of water for 1-2 weeks and investigated for health condition. The weight of mice was recorded once a week.
(§2) The tested animals were grouped randomly into Blank, High Fat Diet control (HFD), Positive Control (PS), and Test group. The animals of Blank were fed with normal feed. The animals of HFD were fed with high fat feed. The animals of PS were fed with high fat feed, and additionally fed with silymarin (5 mg/kg/day) by a tube. The animals of Test group were fed with high fat feed, and additionally force-fed with test compounds by a tube.
The animals of Blank were fed casually with normal feed for 12 weeks, while the animals of HFD, PS, and Test group were fed casually with high fat feed for 12 weeks. […]
In addition, abdominal fat and liver specimens were taken from the abdomens of sacrificed mice and weighted to compare the weight of fat and liver and obtain a ratio of liver weight to body weight. […] Furthermore, the liver function of animals of each group were analyzed by Galactose Single Point Method, which was recognized and recommended for quantification of remaining liver function in clinical use by U.S. FDA and Ministry of Health and Welfare, Taiwan. […]

Assay [3] deals with B6 mice fed with high fat feed (fatty liver). Description: Liver lipids (TG, TC in liver) in mice with induced fatty liver. Format: in vivo. On the procedure: as §1, §2
(§3) The animals of Blank were fed casually with normal feed for 12 weeks, while the animals of HFD, PS, and Test group were fed casually with high fat feed for 12 weeks. After 8 weeks of feeding, the animals of Blank and HFD were fed with deionized water by a tube once a day; the animals of PS were fed with silymarin by a tube once a day; and the animals of Test Group were fed with test compounds by a tube once a day for a duration of 4 or 8 weeks.
In addition, abdominal fat and liver specimens were taken from the abdomens of sacrificed mice and weighted to compare the weight of fat and liver and obtain a ratio of liver weight to body weight. Two tissue blocks with a volume of approximately 1 cm^3 were cut from the largest right lobe of liver, fixed in 10% neutral formalin solution, and then embedded with paraffin for sectioning and H&E staining for histopathological observation. Moreover, the rest of the liver was frozen for preservation and detection of the contents of triglyceride and total cholesterol in the liver. Furthermore, the liver function of animals of each group were analyzed by Galactose Single Point Method, which was recognized and recommended for quantification of remaining liver function in clinical use by U.S. FDA and Ministry of Health and Welfare, Taiwan. At the end of the tests, 0.5 g of galactose (G.S.P.® 0.4 g/mL) per kg of animal was administered via intravenous. One hour after the administration, about 0.5 ml of whole blood was taken by using a filter paper to evaluate liver function of mice. The higher the value of GSP was, the worse the remaining liver function would be (FDA: “Guidance for Industry: Pharmacokinetics in Patients with Impaired. Hepatic Function—Study Design, Data Analysis and Impact on Dosing and. Labeling. 2003).

For assay [4] the test system is unchanged. The assay can be described thus: Serum ALT and AST (liver dysfunction) in mice with induced fatty liver. Format: in vivo. The protocol: as §1, §2, §3
Before testing and in the eighth (8th), twelfth (12th), and sixteenth (16th) week after testing, blood was collected from the cheek or the heart. At the end of testing, all mice were weighted and then sacrificed, and blood was collected from the cheek or the heart simultaneously. The blood specimens of mice was placed at room temperature for one hour to clot, and then the serum was separated by centrifugation in a refrigeration centrifuge at 15,700×g at 4° C. for 5 minutes. Afterwards, biochemical indices of liver function, including aspartate transaminase (AST), alanine aminotransferase (ALT), triglyceride (TG), total cholesterol (TCHO/TC), low-density lipoprotein cholesterol (LDL-C), and high-density lipoprotein cholesterol (HDL-C), were detected by the automatic blood biochemistry analyzer.

Assay [5] has the same test system. The assay can be described thus: Liver antioxidant capacity (Gpx, GSH, Grd, SOD) in mice with induced fatty liver. To be noted: for effect on liver antioxidant activity (in words): fatty liver mice. Format: in vivo. On the procedure:
as §1, §2, §3
About 0.1 g of liver tissue was taken from the sacrificed animal and homogenized by centrifuge with a biomasher for 10 minutes. A 9-fold weight (w/w) of buffer (pH 7.4, 50 mmol/L Tris-HCl, 180 mmol/L KCl) was added to the homogenized tissue, which was then mixed well by a Vortex mixer for subsequent use. The resulting homogenization solution samples of liver tissue was used for the analysis of various members of liver antioxidant systems, including glutathione peroxidase (GPx), glutathione (GSH), glutathione reductase (Grd), and superoxide dismutase (SOD). Methods of related analysis can be found in the known literatures, for example, the draft of “Method for evaluating the liver protection and health care efficacies of health food” announced by the Ministry of Health and Welfare, Taiwan.

Assay [6] shares this test system. Description: Liver histopathology (H&E) and NAS score in mice with induced fatty liver. To be noted: for large vesicular fat droplets within liver cells in liver tissue section: H&E sections, treatment for 4 weeks (FIG. 1); for effect on liver damages (NAS, in words): fatty liver mice. Format: in vivo. The protocol:
as §1, §2, §3
At the end of the test, all mice were sacrificed. One tissue block with a volume of approximately 1 cm^3 was cut from the largest right lobe of liver, fixed in 10% neutral formalin, and then dehydrated and hyalinized in various concentrations of ethanol (30, 50, 70, 95, 99.5%) and xylene. Afterwards, xylene was replaced with hot paraffin solution. At last, the tissue was embedded with paraffin solution. The finished paraffin specimen was cut into 5 pun-thickness paraffin sections by the microtome. The sections were pasted on clean slides, dried at 37° C., and then stained by H&E staining.
Liver tissue sections were deparaffinized in xylene for 30 minutes, and then successively rehydrated in 99.5%, 95%, 70%, 50%, and 30% ethanol for 30 minutes, respectively. After being soaked in distilled water for 10 minutes, the sections could be stained. The sections were first immersed in hematoxylin for 30 seconds to stain cell nuclei, then washed with distilled water for a few minutes, stained with eosin for 2-5 minutes, and washed with distilled water for a few minutes again. […]
In order to observe the changes of lesion, fat accumulation, necrosis, or fibrosis in liver cells when there was an ongoing liver damage, liver tissues were H&E stained to evaluate the degree of liver fat accumulation. […] As for the assessment of semi-quantitative analysis in pathology, it had to be confirmed by a physician or a veterinary pathologist who conducted a double-blind analysis to score (NAS score)^16 and compare all the sections without knowing the test design. […]

In the case of `OC[C@H]1O[C@H](O[C@]2(CCl)O[C@H](CCl)[C@@H](O)[C@@H]2O)[C@H](O)[C@@H](O)[C@H]1Cl` [sucralose], the inhibition at 1 µM in assay [1] came out at 26.7 ± 2.93%. For the same compound, in assay [2], the “effect on weight of abdominal fat (in words)” value (“effect on weight” for short) was “reduces the weight of abdominal fat in animals significantly”. Besides, in assay [3], the “effect on TC in liver (in words)” value was “reduces TC in liver significantly” and the “effect on TG in liver (in words)” value is “reduces TG in liver significantly”. The “effect on ALT and AST values (in words)” value in assay [4] is “can significantly reduce ALT and AST values”.

In the case of `O=c1c(-c2ccc(O)cc2)coc2c([C@@H]3O[C@H](CO)[C@@H](O)[C@H](O)[C@H]3O)c(O)ccc12` [puerarin], in assay [1], the inhibition at 1 µM is 49.9 ± 7.73%. Besides, in assay [3], the “effect on TG in liver (in words)” value is reported as “reduces TG in liver significantly”. The “effect on ALT and AST values (in words)” value in assay [4] is “can significantly reduce ALT and AST values”. The “effect on liver antioxidant activity (in words)” value in assay [5] is “can significantly enhance antioxidant activity”.

In the case of `COc1ccc([C@@H]2CC(=O)c3c(O)cc(O)cc3O2)cc1O` [hesperitin], the inhibition at 1 µM in assay [1] was 16.1 ± 5.55%. Further, in assay [3], the “effect on TC in liver (in words)” value was “reduces TC in liver significantly” and the “effect on TG in liver (in words)” value is given as “reduces TG in liver significantly”. In assay [4], the “effect on ALT and AST values (in words)” value is “can significantly reduce ALT and AST values”. Also, the “effect on liver antioxidant activity (in words)” value in assay [5] was “can significantly enhance antioxidant activity”.

For the compound `OC[C@@H](O)[C@@H](O)[C@H](O)[C@H](O)CO` [mannitol], the inhibition at 1 µM in assay [1] was determined as 22.4 ± 5.74%. Also, the “effect on weight” value in assay [2] is on record as “reduces the weight of abdominal fat in animals significantly”. Moreover, in assay [3], the “effect on TC in liver (in words)” value is given as “reduces TC in liver significantly” and the “effect on TG in liver (in words)” value is given as “reduces TG in liver significantly”. In assay [6], the “large vesicular fat droplets within liver cells in liver tissue section” value is reported as “significantly reduced” and the “effect on liver damages (NAS, in words)” value is “can significantly reduce liver damages”. Further, the “effect on ALT and AST values (in words)” value in assay [4] was “can significantly reduce ALT and AST values”. In addition, the “Gpx, GSH, Grd, and SOD levels (in words)” value in assay [5] (4-week treatment) is reported as “substantial increases”. The “effect on liver antioxidant activity (in words)” value in assay [5] is given as “can significantly enhance antioxidant activity”.

On to `CC1CCC(C(C)C)C(O)C1` (stereo not drawn) [menthol], for which, in assay [1], the inhibition at 1 µM came out at 66.2 ± 1.87%. Also, in assay [2], the “effect on weight” value is recorded as “reduces the weight of abdominal fat in animals significantly”. In addition, in assay [3], the “effect on TC in liver (in words)” value was “reduces TC in liver significantly” and the “effect on TG in liver (in words)” value is on record as “reduces TG in liver significantly”. For the same compound, in assay [6], the “large vesicular fat droplets within liver cells in liver tissue section” value is “significantly reduced”. The “effect on ALT and AST values (in words)” value in assay [4] is “can significantly reduce ALT and AST values”.

For `O=C1C[C@@H](c2ccc(O)c(O)c2)Oc2cc(O)cc(O)c21` [eriodictyol], in assay [1], the inhibition at 1 µM amounted to 35.1 ± 0.87%. Further, in assay [3], the “effect on TC in liver (in words)” value was “reduces TC in liver significantly” and the “effect on TG in liver (in words)” value is “reduces TG in liver significantly”. In assay [6], the “large vesicular fat droplets within liver cells in liver tissue section” value is “significantly reduced” and the “effect on liver damages (NAS, in words)” value is “can significantly reduce liver damages”. Also, the “effect on ALT and AST values (in words)” value in assay [4] was “can significantly reduce ALT and AST values”. Besides, the “effect on liver antioxidant activity (in words)” value in assay [5] was “can significantly enhance antioxidant activity”.
